In US7115662B2, “Certain 5-alkyl-2-arylaminophenylacetic acids and derivatives” (Novartis AG, priority 1997, dated 2006):

Assays:
[1] = system: intestinal permeability; assay: intestinal tolerability (51Cr-EDTA intestinal permeability); format: in vivo; conditions: rat; 30 mg/kg p.o.; 51Cr-EDTA urinary excretion over 24 h
Experimental: Intestinal tolerability can be determined by measuring the effect on intestinal permeability. Lack of increase in permeability is indicative of intestinal tolerability. The method used is a modification of a procedure by Davies, et al., Pharm. Res. 1994; 11:1652–1656 and is based on the fact that excretion of orally administered ^51Cr-EDTA, a marker of small intestinal permeability, is increased by NSAIDs. Groups of rats (≧12/group) are administered a single, oral dose of test compound or vehicle by gastric intubation. Immediately following compound dose, each rat is administered ^51Cr-EDTA (5 μCi/rat) by gastric intubation. The rats are placed in individual metabolic cages and given food and water ad libitum. Urine is collected over a 24 hour period. Twenty-four hours after administration of ^51Cr-EDTA the rats are sacrificed. To quantify compound effect on intestinal permeability, the excreted ^51Cr-EDTA measured in the urine of compound treated rats is compared to the excreted ^51Cr-EDTA measured in the urine of vehicle treated rats. Relative permeability is determined by calculating the activity present in each urine sample as a percent of the administered dose after correcting for background radiation.

[2] = system: pain threshold in yeast-inflamed paw; assay: Randall-Selitto paw pressure assay; format: in vivo, rat; conditions: male Wistar rats; 10 mg/kg orally; 1 h after dosing
Experimental: The analgesic activity of the compounds of the invention is determined using the well-known Randall-Selitto assay.
The Randall-Selitto paw pressure assay measures antinociception (analgesic activity) in inflamed tissue by comparing the pressure threshold in the inflamed paw of the rat after oral administration of test drug with that in the inflamed paw of rats administered corn starch vehicle orally.
Groups of 10 male Wistar rats weighing 40–50 gms are fasted overnight prior to testing. Hyperalgesia is induced by the injection of 0.1 ml of a 20% suspension of Brewer's yeast with a 26 gauge needle into the subplantar region of the right hindpaw. The left paw is not injected and is used as the control paw for determination of hyperalgesia. Vehicle (Fortified corn starch suspension 3%) at 10 ml/kg, reference compound (diclofenac is run in every experiment at the same dose as test compounds) and test compounds at different doses suspended in vehicle at 10 ml/kg are administered orally 2 hours after the yeast injection. The threshold for paw withdrawal is quantified with a Basile Analgesy-meter 1 hour after oral administration of test compounds. The nociceptive threshold is defined as the force in grams at which the rat withdraws its foot or vocalizes. Either vocalization or foot withdrawal is recorded as a response.
The data are analyzed by comparing the mean pain threshold of the corn starch vehicle-treated group for the inflamed and non-inflamed paws to that of individual drug-treated rats. Individual rats in the drug-treated groups and positive control (diclofenac) group are called reactors if the individual pain threshold in each paw exceeds the control group mean threshold by two standard deviations of that mean. The mean pain thresholds of the inflamed paw in the control group are compared to the individual pain thresholds of the inflamed paw in the test drug group. The non-inflamed control mean pressure threshold is compared to the non-inflamed individual pressure thresholds in the test groups. Results are expressed as number of reactors in each test group (n=10) for inflamed and non-inflamed paws. Percentages are calculated by dividing number of reactors by total number of rats used for a compound.

[3] = biological target: T1, cyclooxygenase-2 (COX-2) (Homo sapiens, UniProt P35354); assay: cellular COX-2 inhibition assay (IL-1 induced human fibroblasts, PGE2 radioimmunoassay); format: cell-based; conditions: primary human fibroblasts induced with IL-1, 40 μM arachidonic acid
T1 construct: endogenous in cells; host or cells: primary human skin fibroblasts induced with IL-1
T1 sequence (P35354 18-604): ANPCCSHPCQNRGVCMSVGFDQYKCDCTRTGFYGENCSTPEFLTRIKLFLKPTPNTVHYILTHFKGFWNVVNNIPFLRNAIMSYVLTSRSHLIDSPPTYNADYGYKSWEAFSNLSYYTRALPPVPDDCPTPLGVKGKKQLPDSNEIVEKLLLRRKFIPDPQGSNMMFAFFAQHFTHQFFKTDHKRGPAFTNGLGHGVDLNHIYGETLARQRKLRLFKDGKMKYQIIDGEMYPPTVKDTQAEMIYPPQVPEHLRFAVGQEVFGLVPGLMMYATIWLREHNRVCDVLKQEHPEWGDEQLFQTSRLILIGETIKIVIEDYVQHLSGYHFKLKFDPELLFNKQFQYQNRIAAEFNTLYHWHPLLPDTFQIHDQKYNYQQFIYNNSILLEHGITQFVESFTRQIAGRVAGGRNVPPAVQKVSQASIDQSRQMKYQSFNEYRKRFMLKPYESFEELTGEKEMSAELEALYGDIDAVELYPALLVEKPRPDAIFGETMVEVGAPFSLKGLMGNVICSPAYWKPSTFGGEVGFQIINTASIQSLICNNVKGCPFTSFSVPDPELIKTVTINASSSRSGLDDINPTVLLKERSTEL
Experimental: (§1) Cyclooxygenase inhibition is determined in vitro using cellular assays for inhibition of both cyclooxygenase-1 and cyclooxygenase-2.
(§2) The cellular assays for testing cyclooxygenase inhibitors are based on the fact that the cyclooxygenase enzyme (prostaglandin H synthase) catalyzes the rate limiting step in prostaglandin synthesis from arachidonic acid. Two enzymes mediate the reaction: COX-1 is a constitutive form of the enzyme whereas COX-2 is induced in response to various growth factors and cytokines. Cell lines have been established which express one form of the enzyme: a human skin fibroblast line which can be induced with IL-1 to synthesize COX-2, and the kidney epithelial cell line 293 which has been stably transfected to constitutively express COX-1. Both isoforms metabolize arachidonic acid into the stable metabolite prostaglandin E2. Arachidonic acid can be added exogenously to increase output to easily measurable levels. The levels of prostaglandin E2 in the extracellular medium are assayed by radioimmunoassay as a measure of enzyme activity. The relative activities of each isoform are compared to assess compound selectivity.
(§3) In vitro cyclooxygenase-1 (COX-1) and cyclooxygenase-2 (COX-2) inhibition is determined in the cell-based assays in order to assess the in vitro activity and selectivity for COX-2 inhibition, using a prostaglandin E2 radioimmunoassay. The cells utilized are primary human fibroblasts induced with interleukin-1 to produce COX-2, and the human kidney epithelial cell line 293 stably transfected to produce COX-1 constitutively. Cells are plated out into well plates in which the assay is performed. Fibroblasts are stimulated to synthesize COX-2 by treatment overnight with IL-1; the 293 cells require no induction. Both cell lines are pre-treated with compound dilutions for 15 minutes at 37° C., then 40 μM arachidonic acid is added as exogenous substrate for the production of PGE2, which is measured in supernatant by radioimmunoassay. […]

[4] = system: gross gastric ulceration; assay: gastric tolerability assay; format: in vivo; conditions: rat; 100 mg/kg p.o.; four hours after administration
Experimental: The gastric tolerability assay is used to assess gross ulceration in the rat, measured four hours after oral administration of the test compound. The test is carried out as follows: Rats are fasted overnight, administered compound in fortified cornstarch vehicle by gavage, and sacrificed by carbon dioxide inhalation four hours later. The stomachs are removed and gross gastric lesions counted and measured to give the total lesion length per rat. Each experiment contains the following groups (5–6 rats per group): vehicle control, test compounds, and diclofenac as a reference compound. Data are calculated as the mean number of ulcers in a group, the mean length of ulcers (mm) in the group and as the ulcer index (UI). UI=mean length of ulcers in a group×ulcer incidence where ulcer incidence is the fraction of animals in the group with lesions (100% incidence is 1).

[5] = biological target: T2, cyclooxygenase-1 (COX-1) (Homo sapiens, UniProt P23219); assay: cellular COX-1 inhibition assay (293 cells stably transfected with COX-1, PGE2 radioimmunoassay); format: cell-based; conditions: 293 cells expressing COX-1; 30 μM compound
T2 construct: expressed in transfected cells; host or cells: human kidney epithelial cell line 293, stably transfected
T2 sequence (P23219 24-599, species assumed): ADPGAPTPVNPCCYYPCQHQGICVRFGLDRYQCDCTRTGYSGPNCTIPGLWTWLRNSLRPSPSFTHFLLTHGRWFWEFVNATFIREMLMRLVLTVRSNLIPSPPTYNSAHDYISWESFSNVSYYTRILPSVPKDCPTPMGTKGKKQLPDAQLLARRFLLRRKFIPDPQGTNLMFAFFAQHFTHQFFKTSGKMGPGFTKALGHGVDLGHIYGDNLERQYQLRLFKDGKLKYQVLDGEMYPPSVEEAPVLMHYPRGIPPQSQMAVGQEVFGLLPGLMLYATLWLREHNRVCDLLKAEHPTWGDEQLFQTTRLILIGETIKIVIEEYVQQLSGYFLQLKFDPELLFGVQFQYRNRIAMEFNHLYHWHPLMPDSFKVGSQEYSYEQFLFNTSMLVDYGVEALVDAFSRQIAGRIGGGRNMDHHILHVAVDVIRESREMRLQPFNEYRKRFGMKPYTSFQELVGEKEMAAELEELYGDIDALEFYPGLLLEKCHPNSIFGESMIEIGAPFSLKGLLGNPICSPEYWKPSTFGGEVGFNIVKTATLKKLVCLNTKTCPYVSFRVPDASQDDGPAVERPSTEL
Experimental: as §1, §2, §3

Structure (SMILES)	effect on intestinal permeability [1]	pain threshold in the inflamed paw [2]	pain threshold in the non-inflamed paw [2]	IC50 [3]	gastric ulcerogenic effect [4]	COX-1 inhibition at 30 μM [5]	melting point
Cc1ccc(Nc2c(F)cccc2Cl)c(CC(=O)O)c1 [1(d), 5-methyl-2-(2′-chloro-6′-fluoroanilino)phenylacetic acid]	no effect or only a minimal effect	increase the pain threshold	no threshold elevation	~130 nM	essentially free of any gastric ulcerogenic effect	no significant COX-1 inhibition	
CCc1ccc(Nc2c(F)c(F)cc(F)c2F)c(CC(=O)O)c1 [3(a), 5-ethyl-2-(2′, 3′,5′,6′-tetrafluoroanilino)phenylacetic acid]	no effect or only a minimal effect	increase the pain threshold	no threshold elevation	~7 nM	essentially free of any gastric ulcerogenic effect	no significant COX-1 inhibition	
Cc1ccc(Nc2c(F)cc(F)cc2Cl)c(CC(=O)O)c1 [Example 1(g), 5-methyl-2-(2′,4′-difluoro-6′-chloroanilino)phenylacetic acid]	no effect or only a minimal effect	increase the pain threshold	no threshold elevation	~250 nM	essentially free of any gastric ulcerogenic effect	no significant COX-1 inhibition	157 to 159 °C
